Source: ChEMBL document CHEMBL1201862, “PubChem BioAssay data set” (2004)
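96-well plates; 48 h exposure; 5 concentrations. Endpoints by linear interpolation between flanking doses. Not reached: highest tested concentration assigned. Abbreviation: GI50, concentration required for 50% inhibition of growth.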 Active and inactive are the calls of the source. No stated cut-off is given here; in the data, active = GI50 up to about 1.1 µM and inactive = higher.

Experiments:
Assay in all cases: NCI anticancer screen, dose series, 48 h
[1] = tested on: UACC-257
[2] = tested on: UO-31
[3] = tested on: KM-20L2
[4] = tested on: SNB-19
[5] = tested on: LOX IMVI
[6] = tested on: OVCAR-3
[7] = tested on: KM12
[8] = tested on: HL-60
[9] = tested on: HCC 2998
[10] = tested on: LXFL 529
[11] = tested on: A498
[12] = tested on: MDA-MB-231
[13] = tested on: HCT-15
[14] = tested on: ACHN
[15] = tested on: TK-10
[16] = tested on: DMS-114
[17] = tested on: RXF 393
[18] = tested on: SK-MEL-28
[19] = tested on: Hs-578T
[20] = tested on: K562
[21] = tested on: OVCAR-4
[22] = tested on: NCI-H460
[23] = tested on: MDA-N
[24] = tested on: PC-3
[25] = tested on: M19-MEL
[26] = tested on: SW-620
[27] = tested on: HOP-92
[28] = tested on: DLD-1
[29] = tested on: SF-268
[30] = tested on: NCI-H226
[31] = tested on: OVCAR-8
[32] = tested on: RPMI-8226
[33] = tested on: NCI-H23
[34] = tested on: SK-MEL-2
[35] = tested on: SN12C
[36] = tested on: DMS-273
[37] = tested on: COLO 205
[38] = tested on: CAKI-1
[39] = tested on: U-251
[40] = tested on: HT-29
[41] = tested on: A549
[42] = tested on: M14
[43] = tested on: CCRF-CEM
[44] = tested on: OVCAR-5
[45] = tested on: MCF7
[46] = tested on: SF-295
[47] = tested on: 786-0
[48] = tested on: XF498
[49] = tested on: T47D
[50] = tested on: DU-145
[51] = tested on: HCT-116
[52] = tested on: SNB-78
[53] = tested on: IGROV-1
[54] = tested on: SF-539
[55] = tested on: NCI/ADR-RES
[56] = tested on: EKVX
[57] = tested on: Malme-3M
[58] = tested on: SK-OV-3
[59] = tested on: UACC-62
[60] = tested on: MOLT-4
[61] = tested on: MDA-MB-435
[62] = tested on: SNB-75
[63] = tested on: BT-549
[64] = tested on: NCI-H522
[65] = tested on: HOP-62
[66] = tested on: HOP-18
[67] = tested on: SK-MEL-5
[68] = tested on: RXF 631

Measured: GI50

S=P(N1CC1)(N1CC1)N1CC1 [THIOTEPA]
149 µM: [13]
inactive: [1] 134 µM | [2] 97.9 µM | [3] 175 µM | [4] 115 µM | [5] 39.6 µM | [6] 169 µM | [7] 171 µM | [8] 7.45 µM | [9] 111 µM | [10] 146 µM | [11] 126 µM | [12] 274 µM | [14] 14.6 µM | [15] 333 µM | [16] 35.4 µM | [17] 101 µM | [18] 186 µM | [19] 361 µM | [20] 143 µM | [21] 188 µM | [22] 5.33 µM | [23] 161 µM | [24] 217 µM | [25] 142 µM | [26] 140 µM | [27] 112 µM | [28] 195 µM | [29] 39.4 µM | [30] 110 µM | [31] 110 µM | [32] 176 µM | [33] 36.1 µM | [34] 220 µM | [35] 35.5 µM | [36] 21.3 µM | [37] 141 µM | [38] 30.3 µM | [39] 58.7 µM | [40] 159 µM | [41] 50.4 µM | [42] 72.1 µM | [43] 9.46 µM | [44] 147 µM | [45] 30.7 µM | [46] 33.1 µM | [47] 39.8 µM | [48] 95.1 µM | [49] 171 µM | [50] 32.1 µM | [51] 116 µM | [52] 385 µM | [53] 158 µM | [54] 37.7 µM | [55] 79.1 µM | [56] 234 µM | [57] 141 µM | [58] 101 µM | [59] 14.7 µM | [60] 7.69 µM | [61] 158 µM | [62] 97.3 µM | [63] 175 µM | [64] 101 µM | [65] 31.3 µM | [66] 231 µM | [67] 97.9 µM

CC(=O)/C=C\C1CC2C=CC1C2 (configuration not stated)
inactive: [2] 41 µM | [3] 40.2 µM | [4] 53.5 µM | [5] 14.1 µM | [6] 37.8 µM | [7] 32.3 µM | [8] 26.8 µM | [9] 24.3 µM | [10] 29.4 µM | [14] 79.3 µM | [15] 86.5 µM | [16] 21.5 µM | [17] 63 µM | [20] 21.6 µM | [21] 27.1 µM | [22] 44.1 µM | [25] 55.3 µM | [26] 33.7 µM | [27] 29.2 µM | [28] 15.1 µM | [29] 25.8 µM | [31] 36.3 µM | [32] 23.9 µM | [33] 36.1 µM | [34] 49.2 µM | [35] 26.7 µM | [36] 41 µM | [37] 37.6 µM | [39] 45.4 µM | [41] 67.1 µM | [42] 33.7 µM | [43] 16.3 µM | [44] 53.3 µM | [46] 31 µM | [47] 43.1 µM | [51] 15.2 µM | [52] 22.1 µM | [53] 81.3 µM | [54] 37.4 µM | [56] 64.9 µM | [57] 27.2 µM | [58] > 100 µM | [59] 58.3 µM | [60] 20.8 µM | [62] 21.6 µM | [65] 92.3 µM | [68] 51.5 µM | [66] 96.6 µM | [67] 57.9 µM
22.5 µM: [13]
